Test results as given in ChEMBL document CHEMBL1201862, “PubChem BioAssay data set” (2004).
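Grown in 96-well plates, cells were treated for 48 hours with each compound at five concentrations. Insufficient inhibition: endpoint recorded as highest concentration tested. The concentration for 50% growth inhibition is given as GI50.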 Active and inactive are the calls of the source. No stated cut-off is given here; in the data, active = GI50 up to about 1.1 µM and inactive = higher.

Experiments:
Test in all cases: NCI anticancer screen, dose series, 48 h
[1] = tested on: CCRF-CEM
[2] = tested on: HCT-15
[3] = tested on: SF-539
[4] = tested on: CAKI-1
[5] = tested on: NCI-H23
[6] = tested on: SW-620
[7] = tested on: A498
[8] = tested on: EKVX
[9] = tested on: UACC-257
[10] = tested on: OVCAR-8
[11] = tested on: RPMI-8226
[12] = tested on: IGROV-1
[13] = tested on: SF-268
[14] = tested on: A549
[15] = tested on: MDA-N
[16] = tested on: OVCAR-4
[17] = tested on: M14
[18] = tested on: SK-OV-3
[19] = tested on: SK-MEL-2
[20] = tested on: OVCAR-3

Structure (SMILES): NC1=C(N2CCCCC2)C(=O)NC2=N/C(=C\c3ccccc3)C(=O)N21
- GI50 [1]: > 100 µM (inactive)
- GI50 [2]: > 100 µM
- GI50 [3]: > 100 µM (inactive)
- GI50 [4]: > 100 µM (inactive)
- GI50 [5]: > 100 µM (inactive)
- GI50 [6]: > 100 µM (inactive)
- GI50 [7]: > 100 µM (inactive)
- GI50 [8]: 92.9 µM (inactive)
- GI50 [9]: > 100 µM (inactive)
- GI50 [10]: > 100 µM (inactive)
- GI50 [11]: > 100 µM (inactive)
- GI50 [12]: > 100 µM (inactive)
- GI50 [13]: > 100 µM (inactive)
- GI50 [14]: > 100 µM (inactive)
- GI50 [15]: > 100 µM (inactive)
- GI50 [16]: 86.3 µM (inactive)
- GI50 [17]: > 100 µM (inactive)
- GI50 [18]: > 100 µM (inactive)

Structure (SMILES): COC(=O)C1CCC(=S)N1C(C)=O (centres undefined)
- GI50 [2]: > 100 µM
- GI50 [4]: > 100 µM (inactive)
- GI50 [5]: > 100 µM (inactive)
- GI50 [6]: > 100 µM (inactive)
- GI50 [7]: > 100 µM (inactive)
- GI50 [8]: > 100 µM (inactive)
- GI50 [9]: > 100 µM (inactive)
- GI50 [10]: > 100 µM (inactive)
- GI50 [11]: > 100 µM (inactive)
- GI50 [12]: > 100 µM (inactive)
- GI50 [13]: > 100 µM (inactive)
- GI50 [19]: > 100 µM (inactive)
- GI50 [14]: > 100 µM (inactive)
- GI50 [15]: > 100 µM (inactive)
- GI50 [16]: > 100 µM (inactive)
- GI50 [17]: > 100 µM (inactive)
- GI50 [18]: > 100 µM (inactive)
- GI50 [20]: > 100 µM (inactive)

Structure (SMILES): CC1(C)C2CCC3=C(CCC4(C)C5C[C@](C)(C(=O)O)CC[C@]5(C)CC[C@]34C)[C@@]2(C)CC[C@@H]1O (some centres undefined)
- GI50 [1]: 14.9 µM (inactive)
- GI50 [2]: 16.5 µM
- GI50 [3]: 37.3 µM (inactive)
- GI50 [4]: 18.9 µM (inactive)
- GI50 [5]: 19.3 µM (inactive)
- GI50 [6]: 16.6 µM (inactive)
- GI50 [7]: 26.5 µM (inactive)
- GI50 [8]: 20.4 µM (inactive)
- GI50 [11]: 20.9 µM (inactive)
- GI50 [12]: 24.2 µM (inactive)
- GI50 [13]: 31.2 µM (inactive)
- GI50 [14]: 13.1 µM (inactive)
- GI50 [15]: 18.8 µM (inactive)
- GI50 [16]: 16.3 µM (inactive)
- GI50 [17]: 17.5 µM (inactive)
- GI50 [18]: 20.2 µM (inactive)
- GI50 [20]: 15.9 µM (inactive)

Structure (SMILES): CCOC(=O)Nc1c(C#N)[n+]([O-])c2cc(Cl)c(Cl)cc2[n+]1[O-]
- GI50 [1]: 4.37 µM (inactive)
- GI50 [2]: 5.13 µM
- GI50 [3]: 12.9 µM (inactive)
- GI50 [4]: 19.4 µM (inactive)
- GI50 [5]: 19.7 µM (inactive)
- GI50 [6]: 13.1 µM (inactive)
- GI50 [7]: 7.69 µM (inactive)
- GI50 [9]: 16.5 µM (inactive)
- GI50 [10]: 13.4 µM (inactive)
- GI50 [11]: 2.15 µM (inactive)
- GI50 [12]: 13.1 µM (inactive)
- GI50 [13]: 15.3 µM (inactive)
- GI50 [19]: 17.7 µM (inactive)
- GI50 [14]: 22 µM (inactive)
- GI50 [15]: 16.1 µM (inactive)
- GI50 [16]: 15.3 µM (inactive)
- GI50 [17]: 16.9 µM (inactive)
- GI50 [18]: 24.2 µM (inactive)
- GI50 [20]: 20.1 µM (inactive)

Structure (SMILES): O=C(NCCO)Nc1c(C(F)(F)F)cc(-c2ccccc2)[nH]c1=O
- GI50 [1]: > 100 µM (inactive)
- GI50 [2]: > 100 µM
- GI50 [4]: > 100 µM (inactive)
- GI50 [5]: > 100 µM (inactive)
- GI50 [6]: > 100 µM (inactive)
- GI50 [7]: > 100 µM (inactive)
- GI50 [8]: > 100 µM (inactive)
- GI50 [9]: > 100 µM (inactive)
- GI50 [10]: > 100 µM (inactive)
- GI50 [11]: > 100 µM (inactive)
- GI50 [12]: > 100 µM (inactive)
- GI50 [19]: > 100 µM (inactive)
- GI50 [14]: > 100 µM (inactive)
- GI50 [15]: > 100 µM (inactive)
- GI50 [16]: > 100 µM (inactive)
- GI50 [17]: > 100 µM (inactive)
- GI50 [18]: > 100 µM (inactive)
- GI50 [20]: > 100 µM (inactive)

Structure (SMILES): C1CSCCCSCCSCCCSC1
- GI50 [2]: > 100 µM
- GI50 [3]: > 100 µM (inactive)
- GI50 [4]: > 100 µM (inactive)
- GI50 [5]: > 100 µM (inactive)
- GI50 [6]: > 100 µM (inactive)
- GI50 [7]: > 100 µM (inactive)
- GI50 [8]: > 100 µM (inactive)
- GI50 [9]: > 100 µM (inactive)
- GI50 [10]: > 100 µM (inactive)
- GI50 [11]: > 100 µM (inactive)
- GI50 [12]: > 100 µM (inactive)
- GI50 [13]: > 100 µM (inactive)
- GI50 [19]: > 100 µM (inactive)
- GI50 [14]: > 100 µM (inactive)
- GI50 [15]: > 100 µM (inactive)
- GI50 [16]: > 100 µM (inactive)
- GI50 [17]: > 100 µM (inactive)
- GI50 [18]: > 100 µM (inactive)

Structure (SMILES): CCN(CC)CCNc1nc2ccc([N+](=O)[O-])cc2[n+]([O-])n1
- GI50 [1]: 27 µM (inactive)
- GI50 [2]: 11.5 µM
- GI50 [3]: 23.3 µM (inactive)
- GI50 [4]: 41.9 µM (inactive)
- GI50 [5]: 18.3 µM (inactive)
- GI50 [6]: 16.2 µM (inactive)
- GI50 [7]: 28.4 µM (inactive)
- GI50 [9]: 15.8 µM (inactive)
- GI50 [10]: 13.5 µM (inactive)
- GI50 [11]: 14.7 µM (inactive)
- GI50 [12]: 15.7 µM (inactive)
- GI50 [13]: 41 µM (inactive)
- GI50 [19]: 15.2 µM (inactive)
- GI50 [14]: 21.1 µM (inactive)
- GI50 [15]: 14.9 µM (inactive)
- GI50 [16]: 13.7 µM (inactive)
- GI50 [17]: 16.2 µM (inactive)
- GI50 [20]: 30.3 µM (inactive)

Structure (SMILES): CC(=O)OCC(OC(C)=O)C(OC(C)=O)C(OC(C)=O)C(C=NN(C(C)=O)S(=O)(=O)c1ccc(/C=C2\NC(=O)N(C)C2=O)cc1)OC(C)=O (centres undefined)
- GI50 [1]: 13 µM (inactive)
- GI50 [2]: 25.4 µM
- GI50 [4]: 40.2 µM (inactive)
- GI50 [5]: 34.5 µM (inactive)
- GI50 [6]: 34.4 µM (inactive)
- GI50 [7]: 59.7 µM (inactive)
- GI50 [8]: 43 µM (inactive)
- GI50 [9]: 43.9 µM (inactive)
- GI50 [10]: 25.6 µM (inactive)
- GI50 [11]: 24.2 µM (inactive)
- GI50 [12]: 31.6 µM (inactive)
- GI50 [13]: 30.1 µM (inactive)
- GI50 [19]: 31.5 µM (inactive)
- GI50 [14]: 56 µM (inactive)
- GI50 [15]: 35.7 µM (inactive)
- GI50 [16]: 53.5 µM (inactive)
- GI50 [17]: 69.2 µM (inactive)
- GI50 [18]: 48.5 µM (inactive)
- GI50 [20]: 41.4 µM (inactive)

Structure (SMILES): CC(=O)OC1CC2CCC1(C)C2(C)C (centres undefined)
- GI50 [1]: > 100 µM (inactive)
- GI50 [2]: > 100 µM
- GI50 [3]: > 100 µM (inactive)
- GI50 [5]: > 100 µM (inactive)
- GI50 [6]: > 100 µM (inactive)
- GI50 [7]: > 100 µM (inactive)
- GI50 [9]: > 100 µM (inactive)
- GI50 [10]: > 100 µM (inactive)
- GI50 [11]: > 100 µM (inactive)
- GI50 [12]: > 100 µM (inactive)
- GI50 [13]: > 100 µM (inactive)
- GI50 [19]: > 100 µM (inactive)
- GI50 [15]: > 100 µM (inactive)
- GI50 [16]: > 100 µM (inactive)
- GI50 [17]: > 100 µM (inactive)
- GI50 [18]: > 100 µM (inactive)
- GI50 [20]: > 100 µM (inactive)

Structure (SMILES): O=C1c2cc3c(cc2CC12Cc1cc4c(cc1C2=O)CCCC4)CCCC3
- GI50 [1]: > 100 µM (inactive)
- GI50 [2]: > 100 µM
- GI50 [3]: 52.2 µM (inactive)
- GI50 [5]: 33.3 µM (inactive)
- GI50 [6]: > 100 µM (inactive)
- GI50 [7]: > 100 µM (inactive)
- GI50 [8]: > 100 µM (inactive)
- GI50 [9]: 10.9 µM (inactive)
- GI50 [10]: > 100 µM (inactive)
- GI50 [11]: > 100 µM (inactive)
- GI50 [12]: 71 µM (inactive)
- GI50 [13]: 29.3 µM (inactive)
- GI50 [19]: 75.9 µM (inactive)
- GI50 [14]: 59.2 µM (inactive)
- GI50 [15]: > 100 µM (inactive)
- GI50 [16]: 18.1 µM (inactive)
- GI50 [17]: 65.2 µM (inactive)
- GI50 [18]: 70 µM (inactive)
- GI50 [20]: 23.7 µM (inactive)

Structure (SMILES): COc1ccc(C2=Nn3c(nnc3-c3ccccc3)S/C2=C\c2ccc(-c3ccc([N+](=O)[O-])cc3)o2)cc1
- GI50 [1]: 5.7 µM (inactive)
- GI50 [2]: 16.5 µM
- GI50 [4]: 51.2 µM (inactive)
- GI50 [6]: 24.2 µM (inactive)
- GI50 [7]: 58.6 µM (inactive)
- GI50 [8]: 50.9 µM (inactive)
- GI50 [9]: 44.7 µM (inactive)
- GI50 [10]: 30.5 µM (inactive)
- GI50 [11]: 13.1 µM (inactive)
- GI50 [12]: 56.9 µM (inactive)
- GI50 [13]: 28.8 µM (inactive)
- GI50 [19]: 15.8 µM (inactive)
- GI50 [14]: 36.7 µM (inactive)
- GI50 [15]: 7.6 µM (inactive)
- GI50 [16]: 30 µM (inactive)
- GI50 [17]: 25.4 µM (inactive)
- GI50 [18]: 34.4 µM (inactive)
- GI50 [20]: 23.3 µM (inactive)
